Laboratory results taken from patent US20230015539A1, “METHOD OF TREATMENT WITH KCNQ CHANNEL OPENERS” (Icahn School of Medicine at Mount Sinai, priority 2019, published 2023).
“Also recorded” adds a separate entry of the source.

Legend:
[1] = system: patients diagnosed with an anxiety disorder; assay: Example 3: treatment of patients with an anxiety disorder; conditions: 900 mg oral (300 mg TID); example in present tense
P-glycoprotein = P-glycoprotein (Homo sapiens, UniProt P08183); conditions: cited from earlier work
[2] = human, in vivo; cited from earlier work
[3] = system: patients diagnosed with PTSD; assay: Example 4: treatment of patients with PTSD; assay type: in vivo, human; conditions: 900 mg oral (300 mg TID) daily; example in present tense
[4] = system: patients with major depressive disorder (MDD) or persistent depressive disorder (PDD); assay: Multi-center, double-blind, randomized, placebo-controlled clinical trial of ezogabine (clinical rating scales); assay type: in vivo, human
Excerpt: The well-known Montgomery-Asberg Depression Rating Scale (MADRS) is employed to capture change in overall depressive severity. […] The primary clinical outcome is a MADRS subscale composed of items 7 and 8 from the MADRS that capture symptoms of reduced motivation, low energy, and loss of interest or pleasure, which are termed “MADRS”.
The Temporal Experience of Pleasure Scale (TEPS) is designed to capture the separate reward processing components of anticipation and consumption, mapping the PVS constructs of AM/reward expectancy and IRRA/SSRA, respectively.
The TEPS is an 18-item self-report measurement of anticipatory (10 items) and consummatory (eight items) components of anhedonia which consists of a series of statements that must be rated according to how accurate they are for the individual. The scale differentiates the role of anticipatory pleasure (‘wanting’) from consummatory pleasure (‘liking’). The TEPS-Anticipatory sub-scale is a validated measure of anticipation of reward (higher scores are better); the TEPS-Consummatory sub-scale is a validated measure of response to receipt of reward.
Two additional instruments include the Specific Loss of Interest and Pleasure Scale (SLIPS) and the Anticipatory and Consummatory Interpersonal Pleasure Scale (ACIPS) which offer additional unique features, including specificity for anhedonia in the context of depression, and a focus on social aspects of reward.
The Quick Inventory of Depressive Symptomatology-Self-Report (QIDS-SR) is a validated self-report of depression.
The CGI-S/I will provide an overall clinician-determined summary measure that takes into account all available information, including knowledge of the subject's history, psychosocial circumstances, symptoms, behavior, and the impact of the symptoms on the subject's ability to function. The CGI evaluates the severity of psychopathology from 1 to 7. The CGI-S is a widely administered clinician rated global measure of overall illness severity. Subjects are rated on a 1-7 scale where 1 corresponds to “Normal, Not at All Ill”, 2 is “Borderline Mentally Ill”, the anchor for 3 is “Mildly Ill”, the anchor for 4 is “Moderately Ill”, 5 is “Markedly Ill”, 6 is “Severely Ill”, and 7 is “Among the Most Extremely Ill Patients”. It will be administered at all subject visits. The CGI-I is a widely administered clinician rated global measure of the degree of improvement from the initial assessment in subject overall illness severity. […] It will be administered at all subject visits.
The study procedures were conducted at the Icahn School of Medicine at Mount Sinai in New York City and at Baylor College of Medicine in Houston, Tex. Participants were between the ages of 18 and 65 and meet DSM-V criteria for major depressive disorder (MDD) or persistent depressive disorder (PDD, a chronic form of depression), as assessed by a trained rater using the Structured Clinical Interview for Diagnostic and Statistical Manual of Mental Disorders-Fifth Edition Text Revision (DSM-V-TR) Axis I Disorders, Patient Edition (SCID-I/P).
Following screening (Day −28 to Day −2), screening data was reviewed by the site PI to determine subject eligibility. Subjects who met all inclusion criteria and none of the exclusion criteria entered into the study. All eligible participants returned to the clinics to complete the baseline assessments and undergo randomization (Day 0, Baseline). Baseline assessments included clinical evaluations, the PRT and fMRI scanning (details below). […] Randomization was balanced by using randomly permuted blocks and stratified by center. A computer-generated randomization scheme developed by the coordinating site assigned a unique treatment code, which dictated the treatment assignment and matching study drug kit for each subject. The randomization list was provided by the research pharmacist at the coordinating site to the research pharmacist at the collaboration site.

[5] = system: patients with treatment resistant depression (TRD); assay: Sub-group analysis of the clinical trial: patients with treatment resistant depression (TRD), MADRS
Excerpt: Treatment resistance is defined as at least one probable treatment failure as captured and by the Antidepressant Treatment form (AHTF).

ventral striatum (VS) = assay: fMRI during the Incentive Flanker Task: activation to reward anticipation; assay type: in vivo, human; conditions: baseline to primary outcome visit; ezogabine compared to placebo; n=40
Excerpt: Following screening (Day −28 to Day −2), screening data was reviewed by the site PI to determine subject eligibility. Subjects who met all inclusion criteria and none of the exclusion criteria entered into the study. All eligible participants returned to the clinics to complete the baseline assessments and undergo randomization (Day 0, Baseline). Baseline assessments included clinical evaluations, the PRT and fMRI scanning (details below). […] Randomization was balanced by using randomly permuted blocks and stratified by center. […]
At each visit, participants completed self-report and clinician-administered rating scales performed by trained raters, and met with a study psychiatrist who assessed suicidal thinking or behavior, adverse events (AE), and changes in concomitant medications. […]
The primary outcome measure of the study was a change in activation within the bilateral ventral striatum (VS, FIG. 1) from baseline (Study Visit 0) to the primary outcome visit (Study Visit 5) as measured by functional magnetic resonance imaging (fMRI) during the Incentive Flanker Task (IFT), a variant of the monetary incentive delay task (MID) as described above. […] Additional secondary outcome included change in behavioral symptoms of anhedonia through a computer-based task, the Probabilistic Reward Task (PRT), and global illness improvement and severity evaluated through changes in CGI-I and CGI-S scores. […]

[6] = system: patients enduring stressful life situations; assay: Example 5: inducing resilience in patients enduring stressful life situations; assay type: in vivo, human; conditions: 900 mg oral (300 mg TID) daily; example in present tense

Sequence of P-glycoprotein (P08183 whole entry): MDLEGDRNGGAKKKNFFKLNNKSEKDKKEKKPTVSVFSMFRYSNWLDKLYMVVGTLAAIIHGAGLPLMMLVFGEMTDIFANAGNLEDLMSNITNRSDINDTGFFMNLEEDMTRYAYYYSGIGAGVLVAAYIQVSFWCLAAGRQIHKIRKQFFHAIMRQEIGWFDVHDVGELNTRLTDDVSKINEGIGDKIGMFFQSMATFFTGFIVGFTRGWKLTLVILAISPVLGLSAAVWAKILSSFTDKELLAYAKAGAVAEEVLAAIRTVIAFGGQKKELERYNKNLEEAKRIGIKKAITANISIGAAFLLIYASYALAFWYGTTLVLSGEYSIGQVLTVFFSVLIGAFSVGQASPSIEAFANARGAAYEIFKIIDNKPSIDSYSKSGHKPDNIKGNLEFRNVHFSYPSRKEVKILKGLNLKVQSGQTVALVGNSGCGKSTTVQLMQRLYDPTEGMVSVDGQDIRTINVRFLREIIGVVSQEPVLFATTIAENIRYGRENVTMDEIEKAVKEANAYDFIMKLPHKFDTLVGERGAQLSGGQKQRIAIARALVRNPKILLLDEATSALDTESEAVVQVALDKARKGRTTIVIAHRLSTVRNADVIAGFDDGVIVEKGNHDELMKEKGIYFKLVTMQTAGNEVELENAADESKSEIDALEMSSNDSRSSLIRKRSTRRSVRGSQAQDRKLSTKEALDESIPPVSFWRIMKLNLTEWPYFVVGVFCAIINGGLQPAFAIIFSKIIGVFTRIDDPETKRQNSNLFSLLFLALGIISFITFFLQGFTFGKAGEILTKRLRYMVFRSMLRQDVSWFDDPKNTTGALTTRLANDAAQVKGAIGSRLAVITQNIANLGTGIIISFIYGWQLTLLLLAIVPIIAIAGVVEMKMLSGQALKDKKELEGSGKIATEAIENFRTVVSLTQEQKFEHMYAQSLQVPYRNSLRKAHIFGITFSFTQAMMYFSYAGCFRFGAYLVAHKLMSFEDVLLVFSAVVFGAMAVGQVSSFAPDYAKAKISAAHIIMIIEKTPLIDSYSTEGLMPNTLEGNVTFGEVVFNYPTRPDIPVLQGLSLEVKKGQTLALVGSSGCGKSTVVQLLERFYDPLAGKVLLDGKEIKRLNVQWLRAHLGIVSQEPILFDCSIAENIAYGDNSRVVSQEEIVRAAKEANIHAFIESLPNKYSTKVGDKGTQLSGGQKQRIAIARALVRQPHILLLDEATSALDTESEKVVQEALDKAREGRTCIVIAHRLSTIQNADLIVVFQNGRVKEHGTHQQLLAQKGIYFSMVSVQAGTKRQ

## CCOC(=O)Nc1ccc(NCc2ccc(F)cc2)cc1N [ezogabine, N-[2-amino-4-(4-fluorobenzylamino)-phenyl] carbamic acid ethyl ester]
[1]
  symptoms of anxiety: rapid and sustained alleviation of their symptoms of anxiety
P-glycoprotein
  P-glycoprotein active transport: not subject to P-glycoprotein active transport
[2]
  median time to maximum plasma concentration (Tmax): 30 to 120 min
  metabolism: extensively metabolized primarily via glucuronidation and acetylation
[3]
  PTSD symptoms: alleviated after treatment
[4]; anhedonia, n=45, p<0.0001
  SHAPS scores, Estimate (ezogabine compared to placebo): −1.55
[4]; at the primary outcome visit, ezogabine up to 900 mg/day oral
  mean change from baseline in MADRS score: 5.9±8.8 points
[4]; ezogabine compared to placebo, medium effect size
  SHAPS, Cohen's d: 0.6
[4]; ezogabine compared to placebo, n=45
  MADRS, Cohen's d: 0.7
[4]; ezogabine compared to placebo, n=45, p=0.0008
  TEPS anticipatory subscale (TEPS-ant), Estimate: 1.33
[4]; ezogabine compared to placebo, p=0.0002
  ACIPS, Estimate: 2.77
[4]; ezogabine compared to placebo, p=0.0009
  SLIPS, Estimate: −1.78
[4]; ezogabine compared to placebo, p=0.05
  TEPS consummatory subscale (TEPS-con), Estimate: 0.64
[4]; human patients with depression and anhedonia, 300 mg TID oral, 5 weeks, SHAPS
  effect on anhedonia symptoms: successfully treated patients suffering from anhedonia; also recorded: reduction in anhedonia and related symptoms
[5]; TRD ezogabine, non-TRD ezogabine and placebo groups, p=0.015
  difference in MADRS change (V5 vs V0): TRD versus non-TRD patients: even larger benefit of treatment compared to placebo in the TRD patients than in the non-TRD patients
[5]; TRD patients, change over time
  onset of improvement in MADRS scores, ezogabine TRD group: significant improvement after a single treatment
[5]; TRD patients, ezogabine 900 mg/day vs placebo, ANOVA p=0.024
  effect of treatment on MADRS in patients with TRD: greatest improvement in their MADRS scores; also recorded: significant effect of treatment; also recorded: beneficial effects compared to placebo
Ventral striatum (VS)
  change in activation to reward anticipation within ventral striatum (fMRI): increased response to reward in the brain
[6]
  resilience: managing emotional health and wellness: better at managing their emotional health and wellness
